From the NIST ThermoML archive (doi:10.1016/j.jct.2014.01.020)

Assay: xn = mol fraction of the nth substance listed
Conditions: Liquid; for mass density: Vibrating tube method; for viscosity: 101 kPa, Concentric cylinders viscometry

C1CCCCC1 [cyclohexane] + CCCCO
mass density [kg/m3]
Conditions	x2 = 0.1	x2 = 0.2	x2 = 0.3003	x2 = 0.4005	x2 = 0.4997	x2 = 0.6001	x2 = 0.6999	x2 = 0.7998	x2 = 0.8999
293.15 K, 100 kPa	779.5	781.4	783.9	786.6	789.7	793.1	796.8	800.7	805
293.15 K, 1000 kPa	780.2	782	784.5	787.3	790.3	793.7	797.4	801.3	805.6
293.15 K, 2000 kPa	781	782.9	785.3	788.1	791.1	794.5	798.2	802	806.3
293.15 K, 5000 kPa	783.5	785.3	787.7	790.5	793.4	796.9	800.4	804.3	808.5
293.15 K, 10000 kPa	787.3	789.2	791.6	794.3	797.2	800.5	804	807.9	812
293.15 K, 15000 kPa	791.1	792.8	795.2	797.8	800.8	804	807.5	811.3	815.4
293.15 K, 20000 kPa	794.5	796.3	798.6	801.3	804.2	807.4	810.8	814.5	818.6
303.15 K, 100 kPa	770.1	772	774.6	777.6	780.9	784.5	788.5	792.3	797.1
303.15 K, 1000 kPa	770.8	772.8	775.3	778.3	781.6	785.2	789.1	793.2	797.8
303.15 K, 2000 kPa	771.7	773.7	776.2	779.2	782.5	786	789.9	794.1	798.6
303.15 K, 5000 kPa	774.4	776.3	778.8	781.7	785	788.5	792.4	796.4	800.9
303.15 K, 10000 kPa	778.5	780.4	782.9	785.7	788.9	792.5	796.2	800.2	804.6
303.15 K, 15000 kPa	782.4	784.3	786.7	789.6	792.7	796.1	799.8	803.8	808.1
303.15 K, 20000 kPa	786.2	788	790.4	793.2	796.3	799.6	803.3	807.2	811.5
303.15 K, 30000 kPa	793.2	795	797.4	800.2	803.1	806.4	810	813.8	817.9
303.15 K, 40000 kPa	799.6	801.4	803.8	806.5	809.4	812.6	816.1	819.8	823.8
313.15 K, 100 kPa	760.4	762.5	765.2	768.4	771.8	775.7	779.8	784.3	789.1
313.15 K, 1000 kPa	761.3	763.3	766.1	769.2	772.7	776.5	780.6	785	789.8
313.15 K, 2000 kPa	762.2	764.3	767	770.1	773.6	777.4	781.5	785.9	790.7
313.15 K, 5000 kPa	765.1	767.1	769.7	772.8	776.2	780	784.1	788.4	793.1
313.15 K, 10000 kPa	769.5	771.5	774.1	777.1	780.5	784.1	788.1	792.4	797
313.15 K, 15000 kPa	773.6	775.6	778.2	781.2	784.4	788	791.9	796.1	800.6
313.15 K, 20000 kPa	777.7	779.5	782.1	785	788.3	791.8	795.6	799.8	804.2
313.15 K, 30000 kPa	785.1	787	789.4	792.3	795.4	798.9	802.6	806.6	811
313.15 K, 40000 kPa	791.9	793.7	796.2	799	802	805.3	809	812.9	817.1
313.15 K, 50000 kPa	798.3	800.1	802.5	805.1	808.1	811.4	815	818.8	822.9
313.15 K, 60000 kPa	804.2	806	808.4	810.9	813.8	817	820.5	824.4	828.3
323.15 K, 100 kPa	750.6	752.8	755.6	758.9	762.6	766.6	771.1	775.7	780.7
323.15 K, 1000 kPa	751.6	753.8	756.6	759.9	763.5	767.5	771.9	776.6	781.6
323.15 K, 2000 kPa	752.6	754.8	757.6	760.8	764.5	768.5	772.9	777.5	782.5
323.15 K, 5000 kPa	755.6	757.8	760.5	763.7	767.3	771.3	775.6	780.1	785.1
323.15 K, 10000 kPa	760.3	762.5	765.2	768.3	771.8	775.7	779.9	784.4	789.2
323.15 K, 15000 kPa	764.8	766.9	769.6	772.7	776.1	779.9	783.9	788.3	793.1
323.15 K, 20000 kPa	769	771.1	773.7	776.7	780.1	783.8	787.9	792.2	796.8
323.15 K, 30000 kPa	776.9	779	781.6	784.4	787.7	791.2	795.2	799.3	803.9
323.15 K, 40000 kPa	784.2	786.1	788.6	791.4	794.6	798.1	801.8	805.9	810.3
323.15 K, 50000 kPa	790.8	792.8	795.1	797.9	801	804.4	808	812	816.3
323.15 K, 60000 kPa	797.2	799	801.4	804.1	807	810.5	814	817.9	822.1
323.15 K, 70000 kPa	802.9	804.6	806.9	809.6	812.6	815.8	819.3	823.2	827.3
323.15 K, 80000 kPa	808.6	810.1	812.3	815	817.9	821.1	824.5	828.3	832.3
333.15 K, 100 kPa	740.7	743	745.9	749.4	753.1	757.4	762.1	767	772.4
333.15 K, 1000 kPa	741.7	744	746.9	750.3	754.1	758.4	763	767.9	773.3
333.15 K, 2000 kPa	742.8	745.1	748	751.4	755.2	759.4	764	768.9	774.2
333.15 K, 5000 kPa	746.1	748.3	751.1	754.5	758.2	762.4	766.9	771.8	777
333.15 K, 10000 kPa	751.1	753.3	756.1	759.4	763	767.1	771.5	776.2	781.3
333.15 K, 15000 kPa	755.9	758	760.8	764	767.5	771.5	775.8	780.4	785.4
333.15 K, 20000 kPa	760.5	762.5	765.2	768.4	771.8	775.7	780	784.5	789.4
333.15 K, 30000 kPa	768.9	770.8	773.4	776.4	779.8	783.6	787.6	792	796.7
333.15 K, 40000 kPa	776.5	778.3	780.8	783.8	787	790.7	794.6	798.8	803.4
333.15 K, 50000 kPa	783.5	785.2	787.7	790.6	793.7	797.2	801.1	805.2	809.7
333.15 K, 60000 kPa	790	791.7	794.1	797	800.1	803.4	807.1	811.2	815.6
333.15 K, 70000 kPa	796.1	797.7	800	802.9	805.8	809.2	812.9	816.8	821.2
333.15 K, 80000 kPa	801.9	803.3	805.7	808.4	811.3	814.6	818.3	822.1	826.3
333.15 K, 90000 kPa	807.3	808.7	810.9	813.7	816.5	819.8	823.3	827.2	831.3
333.15 K, 100000 kPa	812.4	813.8	816	818.7	821.5	824.7	828.1	831.9	836

viscosity [mPa·s]
Conditions	x2 = 0	x2 = 0.1073	x2 = 0.1991	x2 = 0.2998	x2 = 0.4006	x2 = 0.4997	x2 = 0.6001	x2 = 0.7001	x2 = 0.7997	x2 = 0.8996
293.15 K	0.98	0.997	1.042	1.11	1.277	1.462	1.69	1.95	2.243	2.576
303.15 K	0.824	0.837	0.87	0.924	1.038	1.17	1.337	1.528	1.747	1.998
313.15 K	0.701	0.708	0.731	0.772	0.855	0.95	1.074	1.218	1.382	1.573
323.15 K	0.593	0.596	0.613	0.659	0.704	0.776	0.868	0.99	1.106	1.255
333.15 K	0.522	0.522	0.535	0.565	0.605	0.657	0.723	0.8	0.889	1.011
